What is called pIC50 is the IC50 on a negative log10 scale, so that one unit is a factor of ten. A word on the melting point: it is the temperature of the solid-liquid transition.

For one data set, the target named is T1, cannabinoid CB1 receptor (Homo sapiens, UniProt P21554).
T1 construct: host or cells: HEK293 CB1 β-arrestin cells
Briefly: PathHunter β-Arrestin assay (allosteric inhibition of agonist Emax). The format is cell-based. Conditions: HEK293 CB1 β-arrestin cells; concentration of modulator giving 50% reduction in agonist Emax; 60 min pre-incubation. The source says:
PathHunter™ enzyme fragment complementation is the most important method to measure β-arrestin recruitment. PathHunter™ β-Arrestin assays developed by DiscoveRX are revolutionary high-throughput screening assays for monitoring GPCR activation following ligand stimulation, without an imaging instrument, fluorescent protein tag, or radioactivity.
Instead, the assays detect GPCR activation through binding of β-arrestin to the expressed GPCR of interest, and measure the interaction of the two proteins using enzyme fragment complementation (EFC). The EFC approach offers a range of benefits for screening, including signal amplification and robust performance.
The larger portion of β-gal, termed EA for enzyme acceptor, is fused to the C-terminus of β-arrestin. The smaller, complementing fragment of β-gal, the ProLink™ tag, is expressed as a fusion protein with the GPCR of interest at the C-terminus. Upon activation, the GPCR is bound by β-arrestin. The interaction of β-arrestin and the GPCR forces the interaction of ProLink and EA, thus allowing complementation of the two fragments of β-gal and the formation of a functional enzyme capable of hydrolyzing substrate and generating a […] signal.
Using the PathHunter™ CB1 kit from DiscoveRX, a cannabinoid CB1 receptor agonist is added and activates the receptor, EA, which is fused to the C-terminus of β-arrestin, and then interacts with the ProLink™ tag which is fused to the CB1 receptor. This will result in the […] signal that is recorded by a luminescence plate reader. The […] signal is directly related to the activation of the receptor, therefore a higher concentration of agonist will yield a larger […] signal. The cannabinoid agonist is added in increasing concentrations to obtain an agonist dose response curve. With pre-incubation of a potential allosteric modulator, either an enhancement of agonist activity with an allosteric enhancer or a decrease in the maximal response of the agonist with an allosteric inhibitor is expected.
All raw data are obtained as luminescence (relative light units), and are normalised and presented as a percentage of the maximal response for the cannabinoid CB1 receptor agonist CP55,940 (2-[(1R,2R,5R)-5-hydroxy-2-(3-hydroxypropyl)cyclohexyl]-5-(2-methyloctan-2-yl)phenol).
The PathHunter™ β-Arrestin assay (from DiscoveRX, Fremont, USA) was performed as follows. HEK293 CB1 β-arrestin cells were plated 48 hours before use and incubated at 37° C., 5% CO2 in a humidified incubator. Test compounds were dissolved in dimethylsulfoxide (DMSO) and diluted in optimized cell culture (OCC, as supplied by DiscoveRX) media to the required concentrations. 5 μL of test compound or vehicle solution was added to each well and incubated for 60 minutes at 37° C., 5% CO2 in a humidified incubator. 5 μL of increasing concentrations of anandamide was added to each well followed by a 90-minute incubation at 37° C., 5% CO2 in a humidified incubator. 55 μL of detection reagent (as supplied by DiscoveRX) was then added, followed by a further 90 minute incubation at room temperature in the dark. Chemiluminescence, reported in relative light units (RLU—a dimensionless value, standardised as a % of maximum stimulation with anandamide), was measured on a standard luminescence plate reader.
Data were plotted as % of maximal stimulation (Emax) caused by agonist versus the logarithm of concentration of agonist, in the presence or absence of a fixed concentration of test compound (modulator) or vehicle. For example, stimulation in the presence of agonist alone will give a value for stimulation expressed in RLU, which can be expressed as a range from 0% (at lowest agonist concentration, e.g., 1 nM) to 100% (at the highest agonist concentration, e.g., 10 μM). […]

pIC50: −log10 of the molar value.

T1 sequence (P21554 whole entry): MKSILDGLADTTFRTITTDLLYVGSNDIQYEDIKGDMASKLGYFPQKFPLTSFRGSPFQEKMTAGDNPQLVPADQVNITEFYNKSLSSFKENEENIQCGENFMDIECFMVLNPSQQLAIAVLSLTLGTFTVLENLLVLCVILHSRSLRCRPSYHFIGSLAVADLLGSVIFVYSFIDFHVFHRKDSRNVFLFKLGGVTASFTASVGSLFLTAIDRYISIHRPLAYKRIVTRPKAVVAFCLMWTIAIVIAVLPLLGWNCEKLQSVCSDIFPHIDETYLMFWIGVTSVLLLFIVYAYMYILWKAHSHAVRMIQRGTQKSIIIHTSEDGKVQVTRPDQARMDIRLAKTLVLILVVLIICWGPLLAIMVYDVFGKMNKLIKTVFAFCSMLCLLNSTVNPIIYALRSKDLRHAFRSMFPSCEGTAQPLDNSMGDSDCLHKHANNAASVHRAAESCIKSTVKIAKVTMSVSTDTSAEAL

Regarding `COc1ccc(CSc2nnc(-c3[nH]c4ccc(Cl)cc4c3C)o2)cc1` [ABM301, 2-(5-Chloro-3-methyl-1H-indol-2-yl)-5-((4-methoxybenzyl)thio)-1,3,4-oxadiazole], the melting point lay in the range of 210 to 212 °C. Moreover, the negative-log IC50 (pIC50) on cannabinoid CB1 receptor was 7.17.

As to `Clc1ccc2[nH]c(-c3nnc(NCCc4ccccc4)o3)cc2c1` [ABM318, 5-(5-Chloro-1H-indol-2-yl)-N-phenethyl-1,3,4-oxadiazol-2-amine], the melting point was in the range of 235 to 237 °C. Also, the negative logarithm of the IC50 (pIC50) on cannabinoid CB1 receptor is 8.52.

`CCc1c(-c2nnc(NCCc3ccccc3)o2)[nH]c2ccc(Cl)cc12` [ABM317, 5-(5-Chloro-3-ethyl-1H-indol-2-yl)-N-phenethyl-1,3,4-oxadiazol-2-amine]: the melting point was in the range of 175 to 177 °C. Further, the negative logarithm of the IC50 (pIC50) at cannabinoid CB1 receptor is 9.30.

As for `CCc1c(-c2nnc(SCCc3ccccc3)o2)[nH]c2ccc(Cl)cc12` [ABM329, 2-(5-Chloro-3-ethyl-1H-indol-2-yl)-5-(phenethylthio)-1,3,4-oxadiazole], the negative-log IC50 (pIC50) on cannabinoid CB1 receptor was 6.03.

In the case of `CCc1c(-c2nnc(SCc3ccc(C)cc3)o2)[nH]c2ccc(Br)cc12` [ABM327, 2-(5-Bromo-3-ethyl-1H-indol-2-yl)-5-((4-methylbenzyl)thio)-1,3,4-oxadiazole], the melting point fell in the range of 201 to 203 °C. Moreover, the negative logarithm of the IC50 (pIC50) on cannabinoid CB1 receptor was 7.17.

On to `Cc1c(-c2nnc(Nc3ccc(F)cc3)o2)[nH]c2ccc(Cl)cc12` [ABM337, 5-(5-Chloro-3-methyl-1H-indol-2-yl)-N-(4-fluorophenyl)-1,3,4-oxadiazol-2-amine], for which the melting point is 256 to 258 °C. Also, the pIC50 at cannabinoid CB1 receptor is 9.00.

Take `Cc1c(-c2nnc(SCc3ccccc3)o2)[nH]c2ccc(Cl)cc12` [ABM321, 2-(Benzylthio)-5-(5-chloro-3-methyl-1H-indol-2-yl)-1,3,4-oxadiazole]: the melting point is 215 to 216 °C. Besides, the negative logarithm of the IC50 (pIC50) on cannabinoid CB1 receptor is 7.03.

As for `CCc1c(-c2nnc(SCCCc3ccccc3)o2)[nH]c2ccc(Br)cc12` [ABM326, 2-(5-Bromo-3-ethyl-1H-indol-2-yl)-5-((3-phenylpropyl)thio)-1,3,4-oxadiazole], the melting point was in the range of 134 to 135 °C.

For the compound `Cc1c(-c2nnc(NCc3ccccc3)o2)[nH]c2ccc(Cl)cc12` [ABM315, N-Benzyl-5-(5-chloro-3-methyl-1H-indol-2-yl)-1,3,4-oxadiazol-2-amine], the melting point is 220 to 222 °C. Further, the pIC50 on cannabinoid CB1 receptor is 8.15.

In turn, `Cc1c(-c2nnc(SCCc3ccccc3)o2)[nH]c2ccc(Cl)cc12` [ABM322, 2-(5-Chloro-3-methyl-1H-indol-2-yl)-5-(phenethylthio)-1,3,4-oxadiazole] had a melting point of 222 to 224 °C. Further, at cannabinoid CB1 receptor, the pIC50 was 6.38.

The compound `CCc1c(-c2nnc(SCc3ccc(OC)cc3)o2)[nH]c2ccc(Br)cc12` [ABM309, 2-(5-Bromo-3-ethyl-1H-indol-2-yl)-5-((4-methoxybenzyl)thio)-1,3,4-oxadiazole] had a melting point of 181 to 183 °C.

In turn, `Cc1c(-c2nnc(Nc3ccccc3)o2)[nH]c2ccc(Cl)cc12` [ABM311, 5-(5-Chloro-3-methyl-1H-indol-2-yl)-N-phenyl-1,3,4-oxadiazol-2-amine] gave a melting point of 268 to 270 °C. Further, the negative-log IC50 (pIC50) on cannabinoid CB1 receptor was 8.70.

As for `c1ccc(CSc2nnc(-c3cc4ccccc4[nH]3)o2)cc1` [ABM333, 2-(Benzylthio)-5-(1H-indol-2-yl)-1,3,4-oxadiazole], the melting point is 178 to 180 °C.

Take `Cc1ccc(CSc2nnc(-c3[nH]c4ccc(Cl)cc4c3C)o2)cc1` [ABM324, 2-(5-Chloro-3-methyl-1H-indol-2-yl)-5-((4-methylbenzyl)thio)-1,3,4-oxadiazole]: the melting point lay in the range of 212 to 214 °C.

`CCc1c(-c2nnc(SCCCc3ccccc3)o2)[nH]c2ccc(Cl)cc12` [ABM330, 2-(5-Chloro-3-ethyl-1H-indol-2-yl)-5-((3-phenylpropyl)thio)-1,3,4-oxadiazole] had a melting point of 170 to 172 °C.

(Values after patent US20220257569A1, “INDOLE-OXADIAZOLE COMPOUNDS AND THEIR THERAPEUTIC USE” (THE GOVERNING COUNCIL OF THE UNIVERSITY OF TORONTO, priority 2018, published 2022).)
